# Experimental data as given in ChEMBL document CHEMBL4138123, “Design, synthesis and biological evaluation of novel pyrazolochalcones as potential modulators of PI3K/Akt/mTOR pathway and inducers of apoptosis in breast cancer cells” (Eur J Med Chem, 2017).
# Tests used:
# Format in all cases: functional
# UACC-257 [1] = assay: Cytotoxicity against human UACC257 cells assessed as cell growth at 0.01 uM after 48 hrs by sulforhodamine B assay relative to control; settings: UACC-257, 48 h, read-out: Activity
# U-251 [2] = assay: Cytotoxicity against human U251 cells assessed as cell growth at 1 uM after 48 hrs by sulforhodamine B assay relative to control; settings: U-251, 48 h, read-out: Activity
# HL-60(TB) [3] = assay: Cytotoxicity against human HL-60(TB) cells assessed as cell growth at 0.1 uM after 48 hrs by sulforhodamine B assay relative to control; settings: HL-60, 48 h, read-out: Activity
# OVCAR-8 = assay: Cytotoxicity against human OVCAR8 cells assessed as growth inhibition after 48 hrs by sulforhodamine B assay; settings: OVCAR-8, 48 h
# Malme-3M [4] = assay: Cytotoxicity against human MALME-3M cells assessed as growth inhibition after 48 hrs by sulforhodamine B assay
# MOLT-4 [5] = assay: Cytotoxicity against human MOLT4 cells assessed as growth inhibition after 48 hrs by sulforhodamine B assay; settings: MOLT-4, 48 h; for CC50: read-out: LC50 (the source's name)
# RPMI-8226 = assay: Cytotoxicity against human RPMI8226 cells assessed as growth inhibition after 48 hrs by sulforhodamine B assay; settings: RPMI-8226, 48 h
# BT-549 [6] = assay: Cytotoxicity against human BT549 cells assessed as cell growth at 0.1 uM after 48 hrs by sulforhodamine B assay relative to control; settings: BT-549, 48 h, read-out: Activity
# NCI-H322M = assay: Cytotoxicity against human NCI-H322M cells assessed as cell growth at 1 uM after 48 hrs by sulforhodamine B assay relative to control; settings: read-out: Activity
# CCRF-CEM = assay: Cytotoxicity against human CCRF-CEM cells assessed as cell growth at 1 uM after 48 hrs by sulforhodamine B assay relative to control; settings: read-out: Activity
# BT-549 [7] = assay: Cytotoxicity against human BT549 cells assessed as cell growth at 100 uM after 48 hrs by sulforhodamine B assay relative to control; settings: BT-549, 48 h, read-out: Activity
# NCI-H460 = assay: Cytotoxicity against human NCI-H460 cells assessed as growth inhibition after 48 hrs by sulforhodamine B assay; settings: NCI-H460, 48 h
# NCI-H226 = assay: Cytotoxicity against human NCI-H226 cells assessed as cell growth at 0.01 uM after 48 hrs by sulforhodamine B assay relative to control; settings: NCI-H226, 48 h, read-out: Activity
# U-251 [8] = assay: Cytotoxicity against human U251 cells assessed as cell growth at 10 uM after 48 hrs by sulforhodamine B assay relative to control; settings: U-251, 48 h, read-out: Activity
# ACHN = assay: Cytotoxicity against human ACHN cells assessed as cell growth at 10 uM after 48 hrs by sulforhodamine B assay relative to control; settings: read-out: Activity
# SR [9] = assay: Cytotoxicity against human SR cells assessed as growth inhibition after 48 hrs by sulforhodamine B assay; settings: for CC50: read-out: LC50 (the source's name)
# A549 = assay: Cytotoxicity against human A549/ATCC cells assessed as cell growth at 100 uM after 48 hrs by sulforhodamine B assay relative to control; settings: A549, 48 h, read-out: Activity
# BT-549 [10] = assay: Cytotoxicity against human BT549 cells assessed as cell growth at 10 uM after 48 hrs by sulforhodamine B assay relative to control; settings: BT-549, 48 h, read-out: Activity
# HCT-116 = assay: Cytotoxicity against human HCT116 cells assessed as cell growth at 100 uM after 48 hrs by sulforhodamine B assay relative to control; settings: HCT-116, 48 h, read-out: Activity
# UO-31 = assay: Cytotoxicity against human UO31 cells assessed as cell growth at 0.01 uM after 48 hrs by sulforhodamine B assay relative to control; settings: UO-31, 48 h, read-out: Activity
# RXF 393 = assay: Cytotoxicity against human RXF393 cells assessed as growth inhibition after 48 hrs by sulforhodamine B assay; settings: RXF 393, 48 h
# MDA-MB-435 = assay: Cytotoxicity against human MDA-MB-435 cells assessed as cell growth at 0.1 uM after 48 hrs by sulforhodamine B assay relative to control; settings: MDA-MB-435, 48 h, read-out: Activity
# SK-OV-3 [11] = assay: Cytotoxicity against human SKOV3 cells assessed as cell growth at 0.1 uM after 48 hrs by sulforhodamine B assay relative to control; settings: SK-OV-3, 48 h, read-out: Activity
# HL-60(TB) [12] = assay: Cytotoxicity against human HL-60(TB) cells assessed as cell growth at 0.01 uM after 48 hrs by sulforhodamine B assay relative to control; settings: HL-60, 48 h, read-out: Activity
# MDA-MB-468 = assay: Cytotoxicity against human MDA-MB-468 cells assessed as cell growth at 1 uM after 48 hrs by sulforhodamine B assay relative to control; settings: MDA-MB-468, 48 h, read-out: Activity
# HCT-15 [13] = assay: Cytotoxicity against human HCT15 cells assessed as cell growth at 0.01 uM after 48 hrs by sulforhodamine B assay relative to control; settings: HCT-15, 48 h, read-out: Activity
# SK-OV-3 [14] = assay: Cytotoxicity against human SKOV3 cells assessed as cell growth at 100 uM after 48 hrs by sulforhodamine B assay relative to control; settings: SK-OV-3, 48 h, read-out: Activity
# SR [15] = assay: Cytotoxicity against human SR cells assessed as cell growth at 0.1 uM after 48 hrs by sulforhodamine B assay relative to control; settings: read-out: Activity
# HCT-15 [16] = assay: Cytotoxicity against human HCT15 cells assessed as growth inhibition after 48 hrs by sulforhodamine B assay; settings: HCT-15, 48 h
# A498 = assay: Cytotoxicity against human A498 cells assessed as cell growth at 10 uM after 48 hrs by sulforhodamine B assay relative to control; settings: A498, 48 h, read-out: Activity
# Malme-3M [17] = assay: Cytotoxicity against human MALME-3M cells assessed as cell growth at 0.1 uM after 48 hrs by sulforhodamine B assay relative to control; settings: read-out: Activity
# UACC-257 [18] = assay: Cytotoxicity against human UACC257 cells assessed as cell growth at 10 uM after 48 hrs by sulforhodamine B assay relative to control; settings: UACC-257, 48 h, read-out: Activity
# MOLT-4 [19] = assay: Cytotoxicity against human MOLT4 cells assessed as cell growth at 100 uM after 48 hrs by sulforhodamine B assay relative to control; settings: MOLT-4, 48 h, read-out: Activity
# SK-MEL-5 = assay: Cytotoxicity against human SK-MEL-5 cells assessed as cell growth at 100 uM after 48 hrs by sulforhodamine B assay relative to control; settings: SK-MEL-5, 48 h, read-out: Activity
# SF-539 = assay: Cytotoxicity against human SF539 cells assessed as cell growth at 0.1 uM after 48 hrs by sulforhodamine B assay relative to control; settings: SF-539, 48 h, read-out: Activity
# HT-29 = assay: Cytotoxicity against human HT-29 cells assessed as cell growth at 1 uM after 48 hrs by sulforhodamine B assay relative to control; settings: HT-29, 48 h, read-out: Activity
compound,measurement,setting,value
COc1cc(-c2cc(/C=C/C(=O)c3ccc(F)c(F)c3)[nH]n2)cc(OC)c1OC,growth at 0.01 µM,UACC-257 [1],88%
same,growth at 1 µM,U-251 [2],87%
same,growth at 0.1 µM,HL-60(TB) [3],93%
same,LC50,OVCAR-8,> 100 µM
same,TGI,OVCAR-8,17.3 µM
same,LC50,Malme-3M [4],> 100 µM
same,TGI,Malme-3M [4],9.4 µM
same,TGI,MOLT-4 [5],9.09 µM
same,CC50,MOLT-4 [5],> 100 µM
same,LC50,RPMI-8226,> 100 µM
same,TGI,RPMI-8226,6.01 µM
same,growth at 0.1 µM,BT-549 [6],105%
same,growth at 1 µM,NCI-H322M,86%
same,growth at 1 µM,CCRF-CEM,91%
same,growth at 100 µM,BT-549 [7],-58%
same,LC50,NCI-H460,80.4 µM
same,TGI,NCI-H460,8.24 µM
same,growth at 0.01 µM,NCI-H226,99%
same,growth at 10 µM,U-251 [8],7%
same,growth at 10 µM,ACHN,2%
same,TGI,SR [9],> 100 µM
same,CC50,SR [9],> 100 µM
same,growth at 100 µM,A549,-15%
same,growth at 10 µM,BT-549 [10],23%
same,growth at 100 µM,HCT-116,-52%
same,growth at 0.01 µM,UO-31,90%
same,LC50 (concentration killing 50% of cells),RXF 393,54.1 µM
same,TGI,RXF 393,6.34 µM
same,growth at 0.1 µM,MDA-MB-435,90%
same,growth at 0.1 µM,SK-OV-3 [11],99%
same,growth at 0.01 µM,HL-60(TB) [12],102%
same,growth at 1 µM,MDA-MB-468,79%
same,growth at 0.01 µM,HCT-15 [13],97%
same,growth at 100 µM,SK-OV-3 [14],-5%
same,growth at 0.1 µM,SR [15],106%
same,LC50,HCT-15 [16],> 100 µM
same,TGI,HCT-15 [16],> 100 µM
same,growth at 10 µM,A498,-14%
same,growth at 0.1 µM,Malme-3M [17],90%
same,growth at 10 µM,UACC-257 [18],-18%
same,growth at 100 µM,MOLT-4 [19],-14%
same,growth at 100 µM,SK-MEL-5,-88%
same,growth at 0.1 µM,SF-539,97%
same,growth at 1 µM,HT-29,103%
COc1cc(C(=O)/C=C/c2cc(-c3cc(OC)c(OC)c(OC)c3)n[nH]2)cc(OC)c1OC,growth at 0.01 µM,UACC-257 [1],94%
same,growth at 1 µM,U-251 [2],83%
same,growth at 0.1 µM,HL-60(TB) [3],101%
same,LC50,OVCAR-8,6.81 µM
same,TGI,OVCAR-8,3.28 µM
same,LC50,Malme-3M [4],8.99 µM
same,TGI,Malme-3M [4],4.09 µM
same,TGI,MOLT-4 [5],8.95 µM
same,CC50,MOLT-4 [5],> 100 µM
same,LC50,RPMI-8226,> 100 µM
same,TGI,RPMI-8226,2.06 µM
same,growth at 0.1 µM,BT-549 [6],105%
same,growth at 1 µM,NCI-H322M,89%
same,growth at 1 µM,CCRF-CEM,67%
same,growth at 100 µM,BT-549 [7],-94%
same,LC50,NCI-H460,9.91 µM
same,TGI,NCI-H460,4.33 µM
same,growth at 0.01 µM,NCI-H226,99%
same,growth at 10 µM,U-251 [8],-94%
same,growth at 10 µM,ACHN,-97%
same,TGI,SR [9],> 100 µM
same,CC50,SR [9],> 100 µM
same,growth at 100 µM,A549,-66%
same,growth at 10 µM,BT-549 [10],-96%
same,growth at 100 µM,HCT-116,-88%
same,growth at 0.01 µM,UO-31,90%
same,LC50 (concentration killing 50% of cells),RXF 393,5.68 µM
same,TGI,RXF 393,2.67 µM
same,growth at 0.1 µM,MDA-MB-435,94%
same,growth at 0.1 µM,SK-OV-3 [11],95%
same,growth at 0.01 µM,HL-60(TB) [12],112%
same,growth at 1 µM,MDA-MB-468,59%
same,growth at 0.01 µM,HCT-15 [13],95%
same,growth at 100 µM,SK-OV-3 [14],-100%
same,growth at 0.1 µM,SR [15],93%
same,LC50,HCT-15 [16],7.19 µM
same,TGI,HCT-15 [16],3.29 µM
same,growth at 10 µM,A498,-64%
same,growth at 0.1 µM,Malme-3M [17],101%
same,growth at 10 µM,UACC-257 [18],-93%
same,growth at 100 µM,MOLT-4 [19],-15%
same,growth at 100 µM,SK-MEL-5,-98%
same,growth at 0.1 µM,SF-539,91%
same,growth at 1 µM,HT-29,96%
